Measured values: patent publication US9675074B2, “Methods to reduce cold damage in cereals” (Valent BioSciences Corporation, priority 2014, dated 2017)

How the values were obtained:
Corn [1] = assay: Corn growth at 8° C. for 7 d after foliar GA3 application at V2; assay type: in vivo; conditions: 120 mg/liter (0.2 mg/plant: 6.9 grams of GA3/acre)
Experimental: Corn seeds were planted in 2 quart pots filled with standard medium and grown in the greenhouse. After the corn grew for 10 days at 24° C., it was at the V2 growth stage. The 10d post-sowing plants received a foliar application of 1.8 ml of 120 mg/liter GA3 plus 0.05% of a non-ionic surfactant. Immediately after spraying, both the GA3-treated and untreated control plants were moved to a growth chamber set at 8° C. with a 12:12 photoperiod. The height of the plants was measured one week after treatment.

Corn [2] = assay: Greenhouse corn, foliar GA3 before a simulated freeze event (−2° C. for 8 hours), evaluated 8 days after freezing; assay type: in vivo
Experimental: Corn seeds were planted in 18 cell flats filled with Sunshine 900 mix. Osmocote Plus (cal mag) 16-8-12 and Gypsum ([…]) were added (standard medium). The plants were watered and fertilized with 100 ppm of a commercially available 15-5-15 mixture plus 100 ppm calcium and 100 ppm magnesium, pH 6.5, as necessary and grown in the greenhouse. After the corn grew for 7 days, the plants received a foliar application of 1.8 ml of 120 mg/liter GA3 plus 0.05% non-ionic surfactant per plant. Sixteen hours later, the GA3-treated and untreated control plants were moved to a cold room with temperature at −2° C. for 8 hours to simulate a freeze event. Plants were then moved to the greenhouse (25° C.). The plant height, number of injured leaves, and damaged leaf area were evaluated at 8 days after freezing.

[3] = 120 mg/liter GA3, 1.8 ml per plant, 16 h before −2° C. for 8 h, 8 days after freezing
[4] = pre-frost GA3 treatment, 120 mg/liter

C=C1C[C@]23C[C@@]1(O)CC[C@H]2[C@@]12C=C[C@H](O)[C@@](C)(C(=O)O1)[C@H]2[C@@H]3C(=O)O [GA3, gibberellic acid]
Growth rate (Corn [1]; 7 d at 8° C.): 0.58 cm/day | Height at 7 d (Corn [1]; 7 d at 8° C., 12:12 photoperiod): 28.0 cm | Height at Application (Corn [1]; baseline at application, V2): 23.9 cm | Damaged leaf area (Corn [2]; [3]): 12.4% | Number of injured leaf (Corn [2]; [3]): 2.6 | Plant height (Corn [2]; [3]): 59.7 cm | Effect on number of injured leaves or damaged leaf area (Corn [2]; [4]): did not reduce the number of injured leaves or damaged leaf area | Recovery from frost damage (Corn [2]; [4]): did help the corn recover from the frost damage
